According to patent publication US5129937A, “Pyridyloxypyrimidine derivatives, preparation process thereof, and herbicidal compositions containing the same as active ingredients” (Mitsui Toatsu Chemicals Incorporated, priority 1989, dated 1992):

Legend:
Assay type in all cases: in vivo
Rice (Oryza sativa) [1] = test: Submerged Soil Treatment Test (Growth Stage Treatment), crop injury; settings: 30 g ai/a, growth stage treatment (barnyardgrass two-leaf stage), granule, transplanted rice, observed 30 days later
Procedure: (§1) 1/5000-are Wagner pots were filled with soil. Seeds or tubers of barnyardgrass, bulrush and Sagittaria pygmaea were seeded or planted under submerged condition. Two pairs of rice seedlings (2-3 leaf stage), which had been reared in advance, were transplanted to each pot and were allowed to grow in a green house. Each pair consisted of two rice seedlings. When the barnyardgrass grew to the two-leaf stage, each pot was treated with a granule which had been prepared by processing a predetermined amount of the test composition in accordance with a similar method to the method described in Formulation Example 9. The state of emergence of weeds and the state of injury of rice were observed 30 days later. In the table, the degrees of damages of the test plants and the degrees of injury of the rice are shown in a similar manner to Example 2.

Common lambsquarters [2] = test: Upland Foliar Application Test; settings: 30 g ai/a; foliar application at 2-3 leaf stage, emulsion; observed on the 30th day
Description: (§2) Resin-made 1/10000-are pots were filled with the soil of an upland field. Redroot pigweed, morningglory (Ipomoea pupurea), common lambsquarters, foxtail meadow, johnsongrass, barnyardgrass, green foxtail, large crabgrass, soybean, corn and cotton were separately seeded and were allowed to germinate in a green house. When each plant grew to the stage of 2-3 leaves, an emulsion formulated from a predetermined amount of each test compound in a similar manner to the method described in Formulation Example 11 was diluted with water and then sprayed at a predetermined application rate by means of a pressure-operated ULV (ultra low volume) sprayer. The application rate was controlled at 5 l per are. Influence to the crops and weeds were observed on the 30th day after the spray of the herbicides. The results are shown in Table 4 in which the degree of damages of each test plant and the degree of injury to each crop are shown in a similar manner to Test 2.

[3] = system: Foxtail (Setaria viridis); test: Upland Foliar Application Test; settings: 30 g ai/a; foliar application at 2-3 leaf stage, emulsion; observed on the 30th day
Description: as §2

[4] = system: Crabgrass (Digitaria adsendens); test: Upland Foliar Application Test; settings: 30 g ai/a; foliar application at 2-3 leaf stage, emulsion; observed on the 30th day
Description: as §2

Foxtail meadow [5] = test: Upland Foliar Application Test; settings: 30 g ai/a; foliar application at 2-3 leaf stage, emulsion; observed on the 30th day
Description: as §2

[6] = system: Barnyardgrass (Echinochloa crus-galli); test: Upland Foliar Application Test; settings: 30 g ai/a; foliar application at 2-3 leaf stage, emulsion; observed on the 30th day
Description: as §2

Johnsongrass [7] = test: Upland Foliar Application Test; settings: 30 g ai/a; foliar application at 2-3 leaf stage, emulsion; observed on the 30th day
Description: as §2

Redroot Pigweed [8] = test: Upland Foliar Application Test; settings: 30 g ai/a; foliar application at 2-3 leaf stage, emulsion; observed on the 30th day
Description: as §2

Rice (Oryza sativa) [9] = test: Submerged Soil Treatment Test (Pre-Emergence Treatment), crop injury; settings: 30 g ai/a, granule, transplanted rice, observed 30 days later
Procedure: as §1, with “allowed to germinate in a” for “allowed to grow in a”, “rice seedlings. On day later (before emergence of weeds), each pot” for “rice seedlings. When the barnyardgrass grew to the two-leaf stage, each pot”, “injury of rice are” for “injury of the rice are”

Common lambsquarters [10] = test: Upland Soil Application Test; settings: 30 g ai/a; soil application before emergence, wettable powder; observed 30 days later
Procedure: (§3) Resin-made 1/2500-are pots were filled with the soil of an upland field. After they were fertilized, soybean, corn and cotton were seeded and 2-3 cm soil covering was applied. Seeds of redroot pigweed, morningglory (Ipomoea purpurea), common lambsquarters, barnyardgrass, green foxtail, large crabgrass, foxtail meadow and johnsongrass had been uniformly mixed with the soil. They were allowed to germinate in a green house. One day later (before emergence of weeds), a wettable powder prepared from a predetermined amount of each test compound in a similar manner to the method described in Formulation Example 1 was diluted with water and then sprayed evenly at an application rate equal to 10 l per are onto the surface of the soil by means of a pressure-operated ULV (ultra low volume) sprayer. Influence to the crops and weeds were observed 30 days later. The results are shown in Table 3, in which the degree of damages of each test plant and the degree of injury to each crop were determined by comparing the air-dried weights of the test plant and crop with those of the corresponding plant and crop in untreated pots and are shown in accordance with the following standard: […]

[11] = system: Foxtail (Setaria viridis); test: Upland Soil Application Test; settings: 30 g ai/a; soil application before emergence, wettable powder; observed 30 days later
Procedure: as §3

[12] = system: Crabgrass (Digitaria adsendens); test: Upland Soil Application Test; settings: 30 g ai/a; soil application before emergence, wettable powder; observed 30 days later
Procedure: as §3

Foxtail meadow [13] = test: Upland Soil Application Test; settings: 30 g ai/a; soil application before emergence, wettable powder; observed 30 days later
Procedure: as §3

[14] = system: Barnyardgrass (Echinochloa crus-galli); test: Upland Soil Application Test; settings: 30 g ai/a; soil application before emergence, wettable powder; observed 30 days later
Procedure: as §3

Johnsongrass [15] = test: Upland Soil Application Test; settings: 30 g ai/a; soil application before emergence, wettable powder; observed 30 days later
Procedure: as §3

Redroot Pigweed [16] = test: Upland Soil Application Test; settings: 30 g ai/a; soil application before emergence, wettable powder; observed 30 days later
Procedure: as §3

[17] = system: Bulrush (Scirpus juncoides); test: Submerged Soil Treatment Test (Pre-Emergence Treatment); settings: 30 g ai/a, granule, observed 30 days later
Procedure: as §1, with “allowed to germinate in a” for “allowed to grow in a”, “rice seedlings. On day later (before emergence of weeds), each pot” for “rice seedlings. When the barnyardgrass grew to the two-leaf stage, each pot”, “injury of rice are” for “injury of the rice are”

[18] = system: Barnyardgrass (Echinochloa crus-galli); test: as above; settings: 30 g ai/a, granule, observed 30 days later
Procedure: as §1, with “allowed to germinate in a” for “allowed to grow in a”, “rice seedlings. On day later (before emergence of weeds), each pot” for “rice seedlings. When the barnyardgrass grew to the two-leaf stage, each pot”, “injury of rice are” for “injury of the rice are”

[19] = system: Arrowhead sp. (Sagittaria pygmaea); test: as above; settings: 30 g ai/a, granule, observed 30 days later
Procedure: as §1, with “allowed to germinate in a” for “allowed to grow in a”, “rice seedlings. On day later (before emergence of weeds), each pot” for “rice seedlings. When the barnyardgrass grew to the two-leaf stage, each pot”, “injury of rice are” for “injury of the rice are”

Soybean (Glycine max) = test: Upland Soil Application Test, crop injury; settings: 30 g ai/a; soil application before emergence, wettable powder; observed 30 days later
Procedure: as §3

Corn (Zea maize) = test: Upland Soil Application Test, crop injury; settings: 30 g ai/a; soil application before emergence, wettable powder; observed 30 days later
Procedure: as §3

[20] = system: Cotton (Gossypium indicum); test: Upland Soil Application Test, crop injury; settings: 30 g ai/a; soil application before emergence, wettable powder; observed 30 days later
Procedure: as §3

[21] = system: Bulrush (Scirpus juncoides); test: Submerged Soil Treatment Test (Growth Stage Treatment); settings: 30 g ai/a, growth stage treatment (barnyardgrass two-leaf stage), granule, observed 30 days later
Procedure: as §1

[22] = system: Barnyardgrass (Echinochloa crus-galli); test: as above; settings: 30 g ai/a, growth stage treatment (barnyardgrass two-leaf stage), granule, observed 30 days later
Procedure: as §1

[23] = system: Arrowhead sp. (Sagittaria pygmaea); test: as above; settings: 30 g ai/a, growth stage treatment (barnyardgrass two-leaf stage), granule, observed 30 days later
Procedure: as §1

Row | Compound | Crop injury Rice (Oryza sativa) (Rice (Oryza sativa) [1]) | Herbicidal effects Common lambquarters (Common lambsquarters [2]) | Herbicidal effects Foxtail (Setaria viridis) [3] | Herbicidal effects Crabgrass (Digitaria adsendens) [4] | Herbicidal effects Foxtail meadow (Foxtail meadow [5]) | Herbicidal effects Barnyardgrass (Echinochloa crus-galli) [6] | Herbicidal effects Johnsongrass (Johnsongrass [7]) | Herbicidal effects Redroot Pigweed (Redroot Pigweed [8]) | Crop injury Rice (Oryza sativa) (Rice (Oryza sativa) [9]) | Herbicidal effects Common lambquarters (Common lambsquarters [10]) | Herbicidal effects Foxtail (Setaria viridis) [11] | Herbicidal effects Crabgrass (Digitaria adsendens) [12] | Herbicidal effects Foxtail meadow (Foxtail meadow [13]) | Herbicidal effects Barnyardgrass (Echinochloa crus-galli) [14] | Herbicidal effects Johnsongrass (Johnsongrass [15]) | Herbicidal effects Redroot Pigweed (Redroot Pigweed [16]) | Herbicidal effects Bulrush (Scirpus juncoides) [17] | Herbicidal effects Barnyardgrass (Echinochloa crus-galli) [18] | Herbicidal effects Arrowhead sp. (Sagittaria pygmaea) [19] | Crop injury Soybean (Glycine max) (Soybean (Glycine max)) | further results
1 | COc1cc(OC)nc(Oc2cccnc2C2OCC(C)O2)n1 (centres unmarked) [Compound No. 7] | 0 (91-100 (No damages)) | 4 (6-10 (Severe damages)) | 5 (0-5 (Death)) | 4 (6-10 (Severe damages)) | 5 (0-5 (Death)) | 5 (0-5 (Death)) | 5 (0-5 (Death)) | 5 (0-5 (Death)) | 0 (91-100 (No damages)) | 4 (6-10 (Severe damages)) | 5 (0-5 (Death)) | 4 (6-10 (Severe damages)) | 4 (6-10 (Severe damages)) | 5 (0-5 (Death)) | 5 (0-5 (Death)) | 4 (6-10 (Severe damages)) | 5 (0-5 (Death)) | 5 (0-5 (Death)) | 4 (6-10 (Severe damages)) | 0 (91-100 (No damages)) | Crop injury Corn (Zea maize) (Corn (Zea maize)): 0 (91-100 (No damages)); Crop injury Cotton (Gossypium indicum) [20]: 0 (91-100 (No damages)); Herbicidal effects Bulrush (Scirpus juncoides) [21]: 4 (6-10 (Severe damages)); Herbicidal effects Barnyardgrass (Echinochloa crus-galli) [22]: 5 (0-5 (Death)); Herbicidal effects Arrowhead sp. (Sagittaria pygmaea) [23]: 4 (6-10 (Severe damages))
2 | CCOC(OCC)c1ncccc1Oc1nc(OC)cc(OC)n1 [Compound No. 3, 3-(4,6-dimethoxy-2-pyrimidinyloxy)-2-pyridinecarboxaldehyde diethylacetal] | 0 (91-100 (No damages)) | 5 (0-5 (Death)) | 5 (0-5 (Death)) | 5 (0-5 (Death)) | 5 (0-5 (Death)) | 5 (0-5 (Death)) | 5 (0-5 (Death)) | 5 (0-5 (Death)) | 0 (91-100 (No damages)) | 5 (0-5 (Death)) | 4 (6-10 (Severe damages)) | 4 (6-10 (Severe damages)) | 5 (0-5 (Death)) | 4 (6-10 (Severe damages)) | 5 (0-5 (Death)) | 5 (0-5 (Death)) | 5 (0-5 (Death)) | 5 (0-5 (Death)) | 5 (0-5 (Death)) | 0 (91-100 (No damages)) | Crop injury Corn (Zea maize) (Corn (Zea maize)): 0 (91-100 (No damages)); Crop injury Cotton (Gossypium indicum) [20]: 0 (91-100 (No damages)); Herbicidal effects Bulrush (Scirpus juncoides) [21]: 5 (0-5 (Death)); Herbicidal effects Barnyardgrass (Echinochloa crus-galli) [22]: 5 (0-5 (Death)); Herbicidal effects Arrowhead sp. (Sagittaria pygmaea) [23]: 5 (0-5 (Death))
